Test [1] relates to Male C57BL/6 mice. Description: Food intake in fasted mice, dose response experiment for PYY3-36Lys12Lauryl (Example 2). Type of test: in vivo. On the procedure:
(§1) Male C57BL/6 mice (20-30 g) were used for all mouse experiments. Mice were individually housed in IVC cages. Animals were randomised by weight and fasted overnight for 16 hrs before intraperitoneal injection at 9 am. Food intake was measured at 1, 2, 3, 4, 6, 8 and 24 hours post injection. All peptide solutions were prepared freshly the morning of the study and injected as 100 ul. All statistics are calculated using a one-way ANOVA with Dunnett's post-test or one-way ANOVA with Bonferroni post-test.
(§2) A control of saline was used.

The subject of test [2] is Male C57BL/6 mice. Briefly: Food intake in fasted mice after a single intraperitoneal injection (Example 1, 3 different PYY analogues). Type of test: in vivo. Conditions: single i.p. injection. On the procedure:
as §1, §2

On to “PYY3-36Lys12Lauryl: PYY3-36 with the residue at position 12 replaced with a lysine residue coupled to a lauroyl group, SEQ ID NO: 14”, for which, in test [1] (240 nmol/kg, mice), the “onset of food intake reduction compared with 60 nmol/kg native PYY3-36” value was “slower onset of food intake reduction” and the “persistence of food intake reduction compared with 60 nmol/kg native PYY3-36” value is given as “greater persistence of effect”. In test [1] (60, 120 and 240 nmol/kg, single i.p. injection, 240 greater effect than 120, both greater than 60 nmol/kg), the “food consumed in the first, second and third hour: relation to dose” value is “does-response relationship”. In addition, the “time at which food intake (in a given time period) becomes greater than in saline control mice” value in test [1] (single i.p. injection, PYY3-36Lys12Lauryl 60, 120, 240 nmol/kg, PYY3-36 30 nmol/kg, FIG. 5) is recorded as “around 6 hours”. The “overall reduction in cumulative food intake versus saline control” value in test [2] (120 nmol/kg, 24 hour period, fasted mice) worked out at 6.1%. In test [2], the “persistence of effect on food intake compared with saline, PYY3-36 (30 nmol/kg) and PYY3-36Lys12 (60 and 120 nmol/kg)” value was “most sustained effect”.

Source of the values: patent publication US8263736B2, “Compounds and their effects on feeding behaviour” (Imperial Innovations Limited, priority 2006, dated 2012).
